Reference: patent publication US7332476B2, “Pyridyl substituted ketolide antibiotics” (Novartis AG, priority 2003, dated 2008)
In brackets after ≈: the same amount, converted by molar mass.

Columns and labels:
Experiment in all cases: MIC, broth microdilution (NCCLS)
[1] = system: Haemophilus influenzae Hain_953460299-3; format: cell-based; conditions: in µg/mL (unit assumed); for MIC, strain ID K: broth microdilution; for MIC: Table 10, Strain ID K (Table 8): Haemophilus influenzae Hain_953460299-3
Protocol: (§1) Strains. The bacterial isolates listed in Table 8 were cultivated from −70° C. frozen stocks by two consecutive overnight passages (P1, P2) at 35° C. on 5% blood agar (Remel, Lenexa, Kans.). Chocolate agar (Remel) is used for Haemophilus influenzae. H. influenzae and Streptococcus pneumoniae are incubated in 5-10% CO2
(§2) Drug Stock Preparation. To determine the amount of solvent to be used to give the desired final concentration, the formula “weight obtained in mg/final concentration in mg/ml” will be used. It will give the amount of solvent in ml needed to be added to give the desired concentration. For example, if 2.5 mg/ml is the desired concentration and the weight of compound is 13.7 mg, then the amount of solvent to be added is […]. Methanol is used as the solvent to dissolve the test compounds. Further dilution of stock is done in sterile, deionized water. Drug stocks are kept frozen at −70° C., protected from light.
(§3) Susceptibility Testing. MICs are determined by the broth microdilution method in accordance with the NCCLS guidelines. In brief, organism suspensions are adjusted to a 0.5 McFarland standard to yield a final inoculum between 3×10^5 and 7×10^5 CFU/ml. Drug dilutions and inocula are made in sterile, cation adjusted Mueller-Hinton Broth (CAMHB) (Remel) for all but S. pneumoniae [CAMHB with 2-5% lysed horse blood (Remel)] and H. influenzae [Haemophilus Test Medium (Remel)]. An inoculum volume of 100 μl is added to wells containing 100 μl of broth with 2-fold serial dilutions of drug. All inoculated microdilution trays are incubated in ambient air at 35° C. for 18-24 hours, except for S. pneumoniae, and H. influenzae (both at 5-10% CO2).
(§4) Following appropriate incubation, the MIC is determined and the MIC is defined as the lowest concentration of the drug that prevented visible growth. […] Antibacterial activity of representative compounds of the invention were compared against telitromycin.

[2] = system: Haemophilus influenzae Hain_960730503-3; format: cell-based; conditions: in µg/mL (unit assumed); for MIC, strain ID I: broth microdilution; for MIC: Table 10, Strain ID I (Table 8): Haemophilus influenzae Hain_960730503-3
Protocol: as §1, §2, §3, §4

[3] = system: Haemophilus influenzae Hain_2762; format: cell-based; conditions: in µg/mL (unit assumed); for MIC, strain ID L: broth microdilution; for MIC: Table 10, Strain ID L (Table 8): Haemophilus influenzae Hain_2762
Protocol: as §1, §2, §3, §4

[4] = system: Haemophilus influenzae Hain_960820544-3; format: cell-based; conditions: in µg/mL (unit assumed); for MIC, strain ID J: broth microdilution; for MIC: Table 10, Strain ID J (Table 8): Haemophilus influenzae Hain_960820544-3
Protocol: as §1, §2, §3, §4

[5] = system: Staphylococcus aureus Stau_33591; format: cell-based; conditions: unit assumed; for MIC, strain ID B: broth microdilution; for MIC: Table 10, Strain ID B (Table 8): Staphylococcus aureus Stau_33591
Protocol: as §1, §2, §3, §4

[6] = system: Enterococcus faecalis Enfa_bc 11148-2; format: cell-based; conditions: in µg/mL (unit assumed); for MIC, strain ID F: broth microdilution; for MIC: Table 10, Strain ID F (Table 8): Enterococcus faecalis Enfa_bc 11148-2
Protocol: as §1, §2, §3, §4

[7] = system: Streptococcus pneumoniae Stpn_49619; format: cell-based; parameters: MIC, strain ID M: unit not given beside the values; conditions: for MIC, strain ID M: broth microdilution; for MIC: Table 10, Strain ID M (Table 8): Streptococcus pneumoniae Stpn_49619
Method in brief: (§5)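 NCCLS broth microdilution with 2-fold serial drug dilutions (methanol stocks diluted in water); inoculum 3×10^5–7×10^5 CFU/ml in CAMHB, with 2-5% lysed horse blood for S. pneumoniae. Incubation 18-24 h at 35° C., ambient air, except S. pneumoniae (5-10% CO2). MIC is lowest concentration preventing visible growth.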

[8] = system: Streptococcus pneumoniae Stpn_297-749; format: cell-based; parameters: MIC, strain ID N: unit not given here; conditions: for MIC, strain ID N: broth microdilution; for MIC: Table 10, Strain ID N (Table 8): Streptococcus pneumoniae Stpn_297-749
Method in brief: as §5

[9] = system: Streptococcus pneumoniae Stpn_280-962; format: cell-based; parameters: MIC, strain ID O: unit not given beside the values; conditions: for MIC, strain ID O: broth microdilution; for MIC: Table 10, Strain ID O (Table 8): Streptococcus pneumoniae Stpn_280-962
Method in brief: as §5

[10] = system: S. pneumoniae Stpn_Erm 6849; format: cell-based, Streptococcus pneumoniae; conditions: strain ID P; broth microdilution; in µg/mL (unit assumed)
Method in brief: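 S. pneumoniae MIC by NCCLS broth microdilution in cation-adjusted Mueller-Hinton broth with 2-5% lysed horse blood, inoculum 3×10^5–7×10^5 CFU/ml, 2-fold drug dilutions. Incubated 18-24 hours at 35° C. in 5-10% CO2; MIC is lowest concentration preventing visible growth.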

[11] = system: Streptococcus pyogenes Stpy_8668; format: cell-based; parameters: MIC, strain ID G: unit not given beside the values; conditions: for MIC, strain ID G: broth microdilution; for MIC: Table 10, Strain ID G (Table 8): Streptococcus pyogenes Stpy_8668
Method in brief: as §5

[12] = system: Staphylococcus epidermidis Step_f50654; format: cell-based; conditions: in µg/mL (unit assumed); for MIC, strain ID D: broth microdilution; for MIC: Table 10, Strain ID D (Table 8): Staphylococcus epidermidis Step_f50654
Method in brief: as §5

[13] = system: Enterococcus faecalis Enfa_29212; format: cell-based; conditions: in µg/mL (unit assumed); for MIC, strain ID E: broth microdilution; for MIC: Table 10, Strain ID E (Table 8): Enterococcus faecalis Enfa_29212
Method in brief: as §5

[14] = system: Streptococcus pneumoniae Stpn_Erm S 4297; format: cell-based; conditions: for MIC, strain ID Q: broth microdilution, in µg/mL (unit assumed); for MIC: Table 10, Strain ID R (Table 8): Streptococcus pneumoniae Stpn_Erm S 4297
Method in brief: as §5

[15] = system: Haemophilus influenzae Hain_49247; format: cell-based; conditions: unit assumed; for MIC, strain ID H: broth microdilution; for MIC: Table 10, Strain ID H (Table 8): Haemophilus influenzae Hain_49247
[16] = system: Staphylococcus aureus Stau_29213; format: cell-based; conditions: in µg/mL (unit assumed); for MIC, strain ID A: broth microdilution; for MIC: Table 10, Strain ID A (Table 8): Staphylococcus aureus Stau_29213
Method in brief: as §5

[17] = system: Staphylococcus epidermidis Step_14990; format: cell-based; conditions: in µg/mL (unit assumed); for MIC, strain ID C: broth microdilution; for MIC: Table 10, Strain ID C (Table 8): Staphylococcus epidermidis Step_14990
Method in brief: as §5

[18] = system: Streptococcus pneumoniae Stpn_Mef 5654; format: cell-based; conditions: Table 10, Strain ID P (Table 8): Streptococcus pneumoniae Stpn_Mef 5654; in µg/mL (unit assumed)
Method in brief: as §5

[19] = system: Streptococcus pneumoniae Stpn_Mef S 3427; format: cell-based; conditions: Table 10, Strain ID Q (Table 8): Streptococcus pneumoniae Stpn_Mef S 3427; in µg/mL (unit assumed)
Method in brief: as §5

Row | SMILES | MIC, strain ID K [1] | MIC, strain ID I [2] | MIC, strain ID L [3] | MIC, strain ID J [4] | MIC, strain ID B [5] | MIC, strain ID F [6] | MIC, strain ID M [7] | MIC, strain ID N [8] | MIC, strain ID O [9] | MIC, strain ID P [10] | MIC, strain ID G [11] | MIC, strain ID D [12] | MIC, strain ID E [13] | MIC, strain ID Q [14] | MIC, strain ID H [15] | MIC, strain ID A [16] | MIC, strain ID C [17] | MIC [1] | MIC [2] | MIC [3] | further results
1 | C=C[C@]12OC(=O)N(CCCCn3cnc(-c4cccnc4Cl)c3)[C@@H]1[C@@H](C)C(=O)[C@H](C)C[C@](C)(OC)[C@H](OC1O[C@H](C)C[C@H](N(C)C)[C@H]1O)[C@@H](C)C(=O)[C@@H](C)C(=O)O[C@@H]2CC (stereo partly drawn) [XXXVI] | 6.25 | 6.25 | 1.56 | 6.25 | > 50 µg/mL | 1.56 | =0.05 | =0.05 | =0.05 | 0.78 | =0.05 | 0.2 | 0.1 | 0.1 | 3.13 µg/mL (≈ 3.65 µM) | 0.2 | 0.1 | – | – | – | –
2 | C#C[C@]12OC(=O)N(CCCCn3cnc(-c4ccc(OC)nc4)c3)[C@@H]1[C@@H](C)C(=O)[C@H](C)C[C@](C)(OC)[C@H](OC1O[C@H](C)C[C@H](N(C)C)[C@H]1O)[C@@H](C)C(=O)[C@@H](C)C(=O)O[C@@H]2CC (stereo partly drawn) [XXXII] | 12.5 | 12.5 | 1.56 | 12.5 | > 50 µg/mL | 1.56 | =0.05 | =0.05 | =0.05 | 0.78 | =0.05 | 0.2 | 0.1 | 0.2 | 6.25 µg/mL (≈ 7.34 µM) | 0.2 | 0.1 | – | – | – | –
3 | CC[C@H]1OC(=O)[C@H](C)C(=O)[C@H](C)[C@@H](OC2O[C@H](C)C[C@H](N(C)C)[C@H]2O)[C@@](C)(OC)C[C@@H](C)C(=O)[C@H](C)[C@H]2N(CCCCn3cnc(-c4ccc(C)nc4)c3)C(=O)O[C@]12CC (stereo partly drawn) [XIII] | – | – | – | – | – | – | – | – | – | – | – | – | – | – | – | – | – | 6.25 | 6.25 | 1.56 | MIC [4]: 6.25; MIC [5]: > 50 µg/mL; MIC [6]: 3.13; MIC [18]: 0.78; MIC [7]: =0.05; MIC [8]: =0.05; MIC [9]: =0.05; MIC [11]: =0.05; MIC [12]: 0.4; MIC [19]: 0.2; MIC [13]: 0.2; MIC ([14]; unit assumed): 0.2 µg/mL (≈ 0.238 µM); MIC [15]: 6.25 µg/mL (≈ 7.44 µM); MIC [16]: 0.4; MIC [17]: 0.2
4 | C=C[C@]12OC(=O)N(CCCCn3cnc(-c4ccc(F)nc4)c3)[C@@H]1[C@@H](C)C(=O)[C@H](C)C[C@](C)(OC)[C@H](OC1O[C@H](C)C[C@H](N(C)C)[C@H]1O)[C@@H](C)C(=O)[C@@H](C)C(=O)O[C@@H]2CC (stereo partly drawn) [XIX] | – | – | – | – | – | – | – | – | – | – | – | – | – | – | – | – | – | 6.25 | 12.5 | 1.56 | MIC [4]: 6.25; MIC [5]: > 50 µg/mL; MIC [6]: 0.4; MIC [18]: 0.4; MIC [7]: =0.05; MIC [8]: =0.05; MIC [9]: =0.05; MIC [11]: =0.05; MIC [12]: 0.1; MIC [19]: 0.1; MIC [13]: 0.1; MIC [14]: =0.05; MIC [15]: 3.13 µg/mL (≈ 3.72 µM); MIC [16]: 0.1; MIC [17]: 0.1
5 | C=C[C@]12OC(=O)N(CCCCn3cnc(-c4ccc(Cl)nc4)c3C)[C@@H]1[C@@H](C)C(=O)[C@H](C)C[C@](C)(OC)[C@H](OC1O[C@H](C)C[C@H](N(C)C)[C@H]1O)[C@@H](C)C(=O)[C@@H](C)C(=O)O[C@@H]2CC (stereo partly drawn) [XXXVII] | 6.25 | 12.5 | 1.56 | 6.25 | > 50 µg/mL | 0.78 | =0.05 | =0.05 | =0.05 | 0.78 | =0.05 | 0.2 | 0.1 | 0.2 | 6.25 µg/mL (≈ 7.16 µM) | 0.2 | 0.2 | – | – | – | –
